The source made the active and inactive calls. No cut-off for these calls is given here.
What was measured:
Type in all cases: functional
Conditions in all cases: for zone of inhibition at 5000 µg/mL: read-out: DIZ
Pseudomonas aeruginosa = assay: Antibacterial activity against gram-negative Pseudomonas aeruginosa at 5 mg/ml after 24 hrs by well diffusion method
Bacillus subtilis = assay: Antibacterial activity against gram-positive Bacillus subtilis at 5 mg/ml after 24 hrs by well diffusion method
Escherichia coli = assay: Antibacterial activity against gram-negative Escherichia coli at 5 mg/ml after 24 hrs by well diffusion method
Bacillus mycoides = assay: Antibacterial activity against gram-positive Bacillus mycoides at 5 mg/ml after 24 hrs by well diffusion method

Structure (SMILES)	zone of inhibition at 5000 µg/mL (Pseudomonas aeruginosa)	zone of inhibition at 5000 µg/mL (Bacillus subtilis)	zone of inhibition at 5000 µg/mL (Escherichia coli)	diameter of the inhibition zone (DIZ) (Bacillus mycoides)	diameter of the inhibition zone (DIZ) (Pseudomonas aeruginosa)	diameter of the inhibition zone (DIZ) (Bacillus subtilis)	diameter of the inhibition zone (DIZ) (Escherichia coli)	zone of inhibition at 5000 µg/mL (Bacillus mycoides)
Cn1c(=O)c2c(-c3ccco3)c[nH]c2n(C)c1=O	18 mm	20 mm	12 mm	inactive				
Cn1c(=O)c2c(-c3ccc(O)cc3)c[nH]c2n(C)c1=O				inactive	inactive	inactive	inactive	
COc1ccc(-c2c[nH]c3c2c(=O)n(C)c(=O)n3C)cc1				inactive	inactive	inactive	inactive	
Cn1c(=O)c2c(-c3c[nH]c4ccccc34)c[nH]c2n(C)c1=O	20 mm	20 mm	12 mm	inactive				
Cn1c(=O)c2c(-c3cccc4ccccc34)c[nH]c2n(C)c1=O	20 mm	18 mm	14 mm					17 mm
CN(C)c1ccc(-c2c[nH]c3c2c(=O)n(C)c(=O)n3C)cc1	20 mm	15 mm	11 mm					12 mm
Cn1c(=O)c2c(-c3cccs3)c[nH]c2n(C)c1=O	20 mm	20 mm	13 mm					13 mm
Cn1c(=O)c2c(-c3ccc(Cl)cc3)c[nH]c2n(C)c1=O				inactive	inactive	inactive	inactive	
Cn1c(=O)c2c(-c3ccccc3)c[nH]c2n(C)c1=O				inactive	inactive	inactive	inactive	
Cc1ccc(-c2c[nH]c3c2c(=O)n(C)c(=O)n3C)cc1	20 mm	20 mm	15 mm					12 mm
